Data as given in ChEMBL document CHEMBL1201862, “PubChem BioAssay data set” (2004).
Values belong to the compound of their own block, whether it stands above or below them. Active and inactive are the calls of the source.

Tests used:
[1] = target: Sphingosine 1-phosphate receptor 1 (Homo sapiens, UniProt P21453); experiment: Fluorescence-based counterscreen assay for S1P4 agonists: Cell-based dose response high throughput screening assay to identify agonists of the Sphingosine 1-Phosphate Receptor 1 (S1P1). [Related pubchem assays (depositor defined):AID1509, AID1523, AID1801, AID463107, AID463118, AID463119, AID463122, AID463123, AID463129, AID463225, AID504400, AID504460]; type: functional
[2] = target: T1, Sphingosine 1-phosphate receptor 4 (Homo sapiens, UniProt O95977); experiment: Fluorescence dose response cell-based high throughput screening assay for agonists of the Sphingosine 1-Phosphate Receptor 4 (S1P4). [Related pubchem assays: 1509 (Primary screen.), 1523 (Confirmation screen in triplicates.)]; type: functional
T1 sequence (O95977 whole entry): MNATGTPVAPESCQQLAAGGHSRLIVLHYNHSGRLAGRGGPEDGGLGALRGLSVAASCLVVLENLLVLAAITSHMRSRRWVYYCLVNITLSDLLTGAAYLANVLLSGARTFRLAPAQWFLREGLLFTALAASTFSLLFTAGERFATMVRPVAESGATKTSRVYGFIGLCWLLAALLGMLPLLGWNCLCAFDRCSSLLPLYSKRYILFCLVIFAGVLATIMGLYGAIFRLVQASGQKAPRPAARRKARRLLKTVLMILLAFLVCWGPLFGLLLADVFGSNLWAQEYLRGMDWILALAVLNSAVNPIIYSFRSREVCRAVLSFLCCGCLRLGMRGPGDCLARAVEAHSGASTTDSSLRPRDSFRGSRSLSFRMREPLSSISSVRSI

[3] = target: Intestinal-type alkaline phosphatase (Mus musculus, UniProt P24822); experiment: PubChem AID 488874; type: functional
[4] = target: T2, Alkaline phosphatase, tissue-nonspecific isozyme (Homo sapiens, UniProt P05186); experiment: TNAP enzyme activators, dose response, selectivity assay for human IAP activator project, biochemical, TNAP isozyme, human IAP uHTS hits (AID 488886); type: functional;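 note: potency of compounds raising TNAP activity as a selectivity check on IAP activators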
T2 sequence (P05186 whole entry): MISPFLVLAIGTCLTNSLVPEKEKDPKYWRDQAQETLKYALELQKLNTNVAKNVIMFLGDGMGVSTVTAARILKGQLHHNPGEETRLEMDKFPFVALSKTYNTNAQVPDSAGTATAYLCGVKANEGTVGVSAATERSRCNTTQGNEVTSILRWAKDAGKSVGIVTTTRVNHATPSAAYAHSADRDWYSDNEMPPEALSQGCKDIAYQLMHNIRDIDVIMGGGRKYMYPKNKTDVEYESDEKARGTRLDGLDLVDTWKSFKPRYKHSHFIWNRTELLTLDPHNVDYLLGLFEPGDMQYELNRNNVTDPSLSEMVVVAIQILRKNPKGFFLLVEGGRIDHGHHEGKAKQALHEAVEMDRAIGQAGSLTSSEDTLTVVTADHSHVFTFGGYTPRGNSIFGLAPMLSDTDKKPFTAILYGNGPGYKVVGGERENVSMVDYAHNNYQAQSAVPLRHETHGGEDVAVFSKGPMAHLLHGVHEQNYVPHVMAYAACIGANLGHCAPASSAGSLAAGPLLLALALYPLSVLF

[5] = target: T3, Intestinal-type alkaline phosphatase (Homo sapiens, UniProt P09923); experiment: human intestinal alkaline phosphatase activators, dose response, biochemical, luminescence, uHTS hits (AID 463120); type: functional
[6] = target: T4, RNA-binding protein pos-1 (Caenorhabditis elegans, UniProt G5EF15); experiment: inhibitors of POS-1/mex-3 RNA binding, dose response, biochemical, fluorescence polarization (AID 1964);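 note: purified POS-1 fused to maltose binding protein made in E. coli; potency of compounds blocking POS-1 binding to fluorescent RNA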
T4 sequence (G5EF15 whole entry): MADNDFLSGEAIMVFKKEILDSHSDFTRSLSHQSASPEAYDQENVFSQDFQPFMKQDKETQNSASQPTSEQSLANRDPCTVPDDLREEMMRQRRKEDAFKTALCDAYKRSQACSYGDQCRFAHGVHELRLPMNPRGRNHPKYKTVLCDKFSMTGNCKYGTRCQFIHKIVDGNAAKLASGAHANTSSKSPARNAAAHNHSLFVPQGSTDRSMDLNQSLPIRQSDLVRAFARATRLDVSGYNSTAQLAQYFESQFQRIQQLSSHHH

[7] = target: T3, Intestinal-type alkaline phosphatase; experiment: human IAP activators, dose response, biochemical, luminescent, uHTS hits, set 2 (AID 488817); type: functional;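 note: potency of activators that raise enzyme activity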
[8] = target: T5, Mannose-6-phosphate isomerase (Homo sapiens, UniProt P34949); experiment: PMI enzyme inhibitors, confirmation, biochemical, fluorescence intensity (AID 1535)
T5 sequence (P34949 whole entry): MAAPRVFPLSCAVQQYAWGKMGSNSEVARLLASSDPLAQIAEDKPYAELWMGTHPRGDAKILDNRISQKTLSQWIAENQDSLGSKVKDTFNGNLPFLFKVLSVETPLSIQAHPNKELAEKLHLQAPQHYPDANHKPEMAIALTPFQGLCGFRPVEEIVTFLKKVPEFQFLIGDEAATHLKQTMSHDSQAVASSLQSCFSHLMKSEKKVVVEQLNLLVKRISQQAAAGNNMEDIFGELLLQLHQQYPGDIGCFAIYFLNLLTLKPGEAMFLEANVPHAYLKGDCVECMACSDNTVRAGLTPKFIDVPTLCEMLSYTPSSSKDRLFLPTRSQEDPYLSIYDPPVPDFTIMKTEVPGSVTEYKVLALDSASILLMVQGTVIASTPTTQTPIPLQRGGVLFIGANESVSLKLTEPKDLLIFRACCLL

Phosphomannomutase 2 = Phosphomannomutase 2 (Homo sapiens, UniProt O15305); experiment: Counter screen SAR assay for PMM2 inhibitors via a fluorescence intensity assay. [Related pubchem assays (depositor defined):AID1545, AID1574]
[9] = target: T6, Runt-related transcription factor 1/Core-binding factor subunit beta (Homo sapiens, UniProt Q01196+Q13951); experiment: inhibitors of RUNX1 Runt–CBFb-SMMHC binding, biochemical, TR-FRET (AID 1438); type: protein assay
[10] = target: T6, Runt-related transcription factor 1/Core-binding factor subunit beta; experiment: inhibitors of RUNX1 Runt–CBFb-SMMHC binding, primary screen, biochemical, FRET, Cerulean-Runt, Venus-CBFb-SMMHC, uHTS (AID 1434); type: protein assay;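 note: partner is the CBFb-SMMHC leukemia fusion protein rather than wild-type CBFb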
[11] = target: T7, Kappa-type opioid receptor (Homo sapiens, UniProt P41145); experiment: KOR antagonists by imaging, SAR follow-up, image-based (AID 2348); type: functional
Mu-type opioid receptor [12] = target: T8, Mu-type opioid receptor (Homo sapiens, UniProt P35372); experiment: MOR agonists by imaging, SAR follow-up, image-based (AID 2352); type: functional
[13] = target: T9, Delta-type opioid receptor (Homo sapiens, UniProt P41143); experiment: DOR agonists, SAR follow-up, image-based (AID 2370); type: functional
[14] = target: T9, Delta-type opioid receptor; experiment: DOR antagonists, SAR follow-up, image-based (AID 2357); type: functional
Mu-type opioid receptor [15] = target: T8, Mu-type opioid receptor; experiment: MOR antagonists, SAR follow-up, image-based (AID 2420); type: functional;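 note: compounds added before stimulation of receptor with agonist DAMGO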
[16] = target: T7, Kappa-type opioid receptor; experiment: SAR analysis of small molecule agonists of the kappa opioid receptor via a luminescent beta-arrestin assay. [Related pubchem assays (depositor defined):AID1777, AID1786, AID1966, AID2133, AID2136, AID2348, AID2352, AID2357, AID2359, AID2370, AID2420, AID2478, AID2491, AID2492, AID2493, AID2497, AID2498, AID2500, AID449737, AID488822, AID488842]; type: functional
[17] = target: T7, Kappa-type opioid receptor; experiment: KOR agonist analogs, imaging readout, SAR follow-up, image-based (AID 2359); type: functional
[18] = target: T10, Tyrosine-protein phosphatase non-receptor type 7 (Homo sapiens, UniProt P35236); experiment: HePTP (PTPN7) phosphatase inhibitor potency, SAR follow-up, biochemical, set 2 (AID 449736); type: functional
T10 sequence (P35236 whole entry): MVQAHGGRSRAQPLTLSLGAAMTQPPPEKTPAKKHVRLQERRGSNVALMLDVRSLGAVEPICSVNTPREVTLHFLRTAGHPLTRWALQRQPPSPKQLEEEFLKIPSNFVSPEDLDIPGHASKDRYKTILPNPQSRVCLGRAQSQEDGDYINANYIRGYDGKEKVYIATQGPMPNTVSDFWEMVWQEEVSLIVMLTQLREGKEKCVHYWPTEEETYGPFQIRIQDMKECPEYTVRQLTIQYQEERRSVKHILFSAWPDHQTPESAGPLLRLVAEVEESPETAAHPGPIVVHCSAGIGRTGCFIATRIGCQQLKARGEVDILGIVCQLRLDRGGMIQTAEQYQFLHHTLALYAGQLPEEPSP

[19] = target: T11, Calpain-2 catalytic subunit (Sus scrofa, UniProt P43367); experiment: pig calpain II inhibitor potency, dose response, biochemical, fluorogenic peptide substrate (AID 1420); type: functional
T11 sequence (P43367 whole entry): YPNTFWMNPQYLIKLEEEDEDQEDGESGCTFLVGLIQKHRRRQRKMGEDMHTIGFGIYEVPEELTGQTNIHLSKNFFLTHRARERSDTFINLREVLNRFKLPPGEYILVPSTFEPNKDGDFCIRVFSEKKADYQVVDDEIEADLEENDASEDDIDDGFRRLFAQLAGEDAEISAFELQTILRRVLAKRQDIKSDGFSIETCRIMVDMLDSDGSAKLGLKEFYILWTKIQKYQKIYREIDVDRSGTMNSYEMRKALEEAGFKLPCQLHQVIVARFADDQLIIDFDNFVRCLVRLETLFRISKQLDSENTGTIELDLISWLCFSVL

[20] = cytotoxicity in HPDE-C7 cells, cell-based, fluorescence, HTS (AID 430); type: functional; settings: Homo sapiens
[21] = cytotoxicity in KRAS-transformed pancreatic duct cells, primary screen, cell-based, fluorescence, HTS (AID 431); type: functional; settings: Homo sapiens;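 note: cell line used: HPDE-C7K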
[22] = target: T12, E3 ubiquitin-protein ligase XIAP (Homo sapiens, UniProt P98170); experiment: Counter Screen using XIAP-Bir3 for Chemical Antagonists of Bir1/2 domains of IAP-family anti-apoptotic proteins. [Related pubchem assays (depositor defined):AID1018, AID1449, AID1514, AID1638, AID1749, AID1750, AID488957, AID488963]
[23] = target: T12, E3 ubiquitin-protein ligase XIAP; experiment: XIAP antagonists, biochemical, IAP family, fluorescence polarization (AID 1018); type: functional
[24] = target: T13, Corticotropin-releasing factor receptor 2/Corticotropin-releasing factor-binding protein (Homo sapiens, UniProt P24387+Q13324); experiment: activators of CRF receptor 2 with binding protein – uHTS hits, confirmation (AID 602473); type: functional; settings: read-out: EC50_Mean
T13 sequence (Q13324 whole entry): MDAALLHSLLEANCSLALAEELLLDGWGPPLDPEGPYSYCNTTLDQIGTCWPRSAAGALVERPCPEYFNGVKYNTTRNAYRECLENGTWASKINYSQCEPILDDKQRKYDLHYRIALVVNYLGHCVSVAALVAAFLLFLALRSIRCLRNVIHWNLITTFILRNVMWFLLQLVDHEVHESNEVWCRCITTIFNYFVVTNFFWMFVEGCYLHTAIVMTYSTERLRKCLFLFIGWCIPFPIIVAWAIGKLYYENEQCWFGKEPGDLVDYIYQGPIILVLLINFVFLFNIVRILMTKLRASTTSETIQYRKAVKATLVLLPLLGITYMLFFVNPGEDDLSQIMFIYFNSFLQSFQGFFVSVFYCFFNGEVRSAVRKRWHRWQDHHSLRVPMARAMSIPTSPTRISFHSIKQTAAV
T13 sequence (P24387 whole entry): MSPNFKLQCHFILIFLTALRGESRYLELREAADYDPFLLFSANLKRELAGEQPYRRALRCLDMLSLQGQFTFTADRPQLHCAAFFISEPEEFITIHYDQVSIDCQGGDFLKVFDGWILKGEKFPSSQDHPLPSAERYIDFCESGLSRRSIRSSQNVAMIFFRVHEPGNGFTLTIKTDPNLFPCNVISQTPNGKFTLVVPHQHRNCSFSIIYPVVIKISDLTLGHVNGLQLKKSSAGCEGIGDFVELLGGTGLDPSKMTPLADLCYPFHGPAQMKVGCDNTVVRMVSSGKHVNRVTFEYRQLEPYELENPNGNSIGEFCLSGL

Troponin, cardiac muscle = Troponin, cardiac muscle (Homo sapiens, UniProt P19429+P45379+P63316); experiment: Fluorescence-based biochemical high throughput dose response assay for activators of the calcium sensitivity of cardiac Regulated Thin Filaments (RTF). [Related pubchem assays (depositor defined):AID493008, AID493018, AID504382, AID504383]; type: protein-complex assay

Compound: CCCN(CCC)c1ccc(/C=C/c2ccc3cc(OCC)ccc3n2)cc1
EC50 [1]: > 5.53 µM (inactive)
EC50 [2]: > 49.8 µM (not active)

Compound: CCNc1sc(C(=O)c2cccs2)c(N)c1-c1nc2ccccc2s1
IC50 [9]: 63.2 µM (inactive)
IC50 [10]: > 100 µM (inactive)

Compound: NS(=O)(=O)c1ccc(NC(=O)N2CCN(Cc3ccccc3)CC2)cc1
IC50 [18]: > 100 µM (inactive)

Compound: COc1ccccc1-c1nnc(SCC(=O)NCc2c(C)c(Cl)cc(C(C)C)c2O)o1
IC50 [19]: 15.8 µM (not active)
EC50 [20]: 10.1 µM (active)
EC50 [21]: 12 µM (active)
IC50 [22]: > 100 µM (inactive)
IC50 [23]: > 100 µM (not active)

Compound: Cc1ccc[n+](-c2[n-]c(=O)sc2C=O)c1
EC50 [24]: 11.5 µM (active)
EC50 (Troponin, cardiac muscle): 2.18 µM (active)

The next lines start with the values.

IC50 [3]: 54.3 µM (active)
EC50 [4]: > 100 µM (inactive)
EC50 [5]: 12.8 µM (active)
EC50 [6]: 25.4 µM (active)
EC50 [7]: 12.1 µM (active)
Compound: Cc1n[nH]c(S/C(=C/c2ccc(-c3ccc(Cl)cc3)o2)C(=O)O)n1

IC50 [8]: 23.6 µM (active)
IC50 (Phosphomannomutase 2): > 100 µM (inactive)
Compound: Clc1nss/c1=N\c1ccc2ncccc2c1

IC50 [11]: > 32 µM (inactive)
EC50 (Mu-type opioid receptor [12]): > 32 µM (inactive)
EC50 [13]: > 32 µM (inactive)
IC50 [14]: > 32 µM (inactive)
IC50 (Mu-type opioid receptor [15]): > 32 µM (inactive)
EC50 [16]: > 10 µM (inactive)
EC50 [17]: > 32 µM (inactive)
Compound: COc1ccc(C)cc1NC(=O)CSc1nnc(-c2ccccn2)n1Cc1ccco1
